Laboratory results taken from patent publication US9763445B2, “Safened herbicidal compositions comprising a pyridine carboxylic acid herbicide” (Dow AgroSciences, LLC, priority 2014, dated 2017).

Key:
spring wheat (TRZAS) = assay: Postemergence greenhouse trial, % visual injury on spring wheat; assay type: in vivo, Triticum aestivum; details: TRZAS, CQC-m 0
Procedure, shortened: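 Injury was scored visually (0 = none, 100 = complete kill) 20–22 d after track-sprayer application at 187 L/ha, compared with solvent-sprayed controls. Test plants at the 2–3 true leaf stage; herbicide (g ae/ha) plus cloquintocet-mexyl safener (g ai/ha) in crop-oil-containing spray; expected mixture response by Colby.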

spring barley (HORVS) = assay: Postemergence greenhouse trial, % visual injury on spring barley; assay type: in vivo, Hordeum vulgare; details: HORVS, CQC-m 0
Procedure, shortened: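 Greenhouse crops at second to third true leaf stage sprayed postemergence at 187 L/ha with herbicide (g ae/ha) plus safener (g ai/ha) in acetone/DMSO diluted into 1.5% v/v Agri-dex. Injury scored visually versus solvent-blank controls after 20-22 d, 0 (none) to 100% (complete kill); expected mixture effects by Colby's equation.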

shepherd's purse (CAPBP) = assay: Postemergence greenhouse trial, % visual injury on shepherd's purse; assay type: in vivo, Capsella bursa-pastoris; details: CAPBP, CQC-m 0
Method: (§1) Seeds of the desired test plant species were planted in Sun Gro MetroMix® 306 planting mixture, which typically has a pH of 6.0 to 6.8 and an organic matter content of about 30 percent, in plastic pots with a surface area of 103.2 square centimeters (cm^2). When required to ensure good germination and healthy plants, a fungicide treatment and/or other chemical or physical treatment was applied. The plants were grown for 7-36 days (d) in a greenhouse with an approximate 14-hour (h) photoperiod which was maintained at about 23° C. during the day and 22° C. during the night. Nutrients and water were added on a regular basis and supplemental lighting was provided with overhead metal halide 1000-Watt lamps as necessary. The plants were employed for testing when they reached the second or third true leaf stage.
(§2) Weighed amounts of technical material were dissolved in a volume of 97:3 volume per volume (v/v) acetone/dimethyl sulfoxide (DMSO) to stock solutions. […] The concentrated stock solutions were diluted with an aqueous mixture of 1.5% v/v of Agri-dex crop oil concentrate to provide the appropriate application rates. Compound requirements are based upon a 12 milliliter (mL) application volume at a rate of 187 liters per hectare (L/ha). Stocks solutions of the safeners were prepared following the same procedure. Spray solutions of the safeners and experimental compound mixtures were prepared by adding the stock solutions to the appropriate amount of dilution solution to form a 12 mL spray solution in two-way combinations. Formulated compounds were applied to the plant material with an overhead Mandel track sprayer equipped with 8002E nozzles calibrated to deliver 187 L/ha over an application area of 0.503 square meters (m^2) at a spray height of 18 inches (43 centimeters (cm)) above average plant canopy. Control plants were sprayed in the same manner with the solvent blank. All herbicide application (component a) rates are in g ae/ha and all safener (component b) rates are in g ai/ha.
(§3) The treated plants and control plants were placed in a greenhouse as described above and watered by sub-irrigation to prevent wash-off of the test compounds. After 20-22 d, the condition of the test plants as compared with that of the control plants was determined visually and scored on a scale of 0 to 100 percent where 0 corresponds to no injury and 100 corresponds to complete kill. The condition of the test plants was compared with that of the control plants as determined visually and scored on a scale of 0 to 100 percent, where 0 corresponds to no injury and 100 corresponds to complete kill. Colby's equation was used to determine the herbicidal effects expected from the mixtures.
(§4) The safener cloquintocet-mexyl was combined with compound 1, compound 2, compound 3, compound 7, compound 8, compound 9, compound 10, compound 11, compound 12, compound 13, compound 14, compound 15, compound 16, compound 17, compound 18, compound 19, and compound 20, and applied to spring wheat (TRZAS), winter wheat (TRZAW), and spring barley (HORVS) and the phytotoxicity of the herbicidal compositions was measured. […]

cornflower (CENCY) = assay: Postemergence greenhouse trial, % visual injury on cornflower; assay type: in vivo, Centaurea cyanus or Cyanus segetum; details: CENCY, CQC-m 0
Method: as §1, §2, §3, §4

Russian thistle (SASKR) = assay: Postemergence greenhouse trial, % visual injury on Russian thistle; assay type: in vivo, Salsola kali; details: SASKR, CQC-m 0
lambsquarters (CHEAL) = assay: Postemergence greenhouse trial, % visual injury on lambsquarters; assay type: in vivo, Chenopodium album; details: Chenopodium album, post-emergence, CHEAL, CQC-m 0, read-out: % visual injury, Ob
Procedure, shortened: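 Visual injury, 0 (none) to 100 (complete kill), rated 20-22 d after overhead track-sprayer application at 187 L/ha; Colby's equation gave expected mixture responses. Herbicide (g ae/ha) and cloquintocet-mexyl safener (g ai/ha) diluted in aqueous 1.5% v/v Agri-dex, applied to weeds at 2–3 true leaves.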

[1] = tested on: purple deadnettle (LAMPU); assay: Postemergence greenhouse trial, % visual injury on purple deadnettle; assay type: in vivo, Lamium purpureum; details: LAMPU, CQC-m 0
Method: as §1, §2
as §3, with “mixtures. […]” for “mixtures.”

Compound | % visual injury, Ob (spring wheat (TRZAS); compound 4.380 g/ha) | % visual injury, Ob (spring wheat (TRZAS); compound 8.75 g/ha) | % visual injury, Ob (spring wheat (TRZAS); compound 17.5 g/ha) | % visual injury, Ob (spring wheat (TRZAS); compound 35 g/ha) | % visual injury, Ob (spring wheat (TRZAS); compound 70 g/ha) | % visual injury, Ob (spring barley (HORVS); compound 4.380 g/ha) | % visual injury, Ob (spring barley (HORVS); compound 8.75 g/ha) | % visual injury, Ob (spring barley (HORVS); compound 17.5 g/ha) | % visual injury, Ob (spring barley (HORVS); compound 35 g/ha) | % visual injury, Ob (spring barley (HORVS); compound 70 g/ha) | % visual injury, Ob (shepherd's purse (CAPBP); compound 4.380 g/ha) | % visual injury, Ob (shepherd's purse (CAPBP); compound 17.5 g/ha) | % visual injury, Ob (shepherd's purse (CAPBP); compound 70 g/ha) | % visual injury, Ob (cornflower (CENCY); compound 4.380 g/ha) | % visual injury, Ob (cornflower (CENCY); compound 8.75 g/ha) | % visual injury, Ob (cornflower (CENCY); compound 17.5 g/ha) | % visual injury, Ob (cornflower (CENCY); compound 35 g/ha) | % visual injury, Ob (cornflower (CENCY); compound 70 g/ha) | % visual injury, Ob (Russian thistle (SASKR); compound 4.380 g/ha) | % visual injury, Ob (Russian thistle (SASKR); compound 8.75 g/ha) | further results
CO/C=N/c1c(F)c(-c2ccc3cc[nH]c3c2F)nc(C(=O)OC)c1Cl [compound 10] | 10% | 25% | 40% | 60% | 70% | 0% | 10% | 20% | 20% | 40% | 30% | 100% | 100% | 100% | 100% | 100% | 100% | 100% | 70% | 80% | % visual injury, Ob (Russian thistle (SASKR); compound 17.5 g/ha): 87%; % visual injury, Ob (Russian thistle (SASKR); compound 35 g/ha): 90%; % visual injury, Ob (Russian thistle (SASKR); compound 70 g/ha): 93%
COC(=O)c1nc(-c2ccc3cc[nH]c3c2F)c(F)c(N)c1OC [compound 12] | 15% | 27% | 42% | 53% | 70% | 18% | 23% | 37% | 47% | 60% | 70% | 100% | 100% | 85% | 95% | 100% | 100% | 100% | 10% | 33% | pest or weed control at 4.38 g/ha (lambsquarters (CHEAL); compound 4.380 g/ha): 40%; pest or weed control at 8.75 g/ha (lambsquarters (CHEAL); compound 8.75 g/ha): 50%; pest or weed control at 17.5 g/ha (lambsquarters (CHEAL); compound 17.5 g/ha): 72%; pest or weed control at 35 g/ha (lambsquarters (CHEAL); compound 35 g/ha): 88%; pest or weed control at 70 g/ha (lambsquarters (CHEAL); compound 70 g/ha): 91%; % visual injury, Ob ([1]; compound 4.380 g/ha): 60%; % visual injury, Ob ([1]; compound 8.75 g/ha): 75%; % visual injury, Ob ([1]; compound 17.5 g/ha): 80%; % visual injury, Ob ([1]; compound 35 g/ha): 90%; % visual injury, Ob ([1]; compound 70 g/ha): 97%; % visual injury, Ob (Russian thistle (SASKR); compound 17.5 g/ha): 52%; % visual injury, Ob (Russian thistle (SASKR); compound 35 g/ha): 72%; % visual injury, Ob (Russian thistle (SASKR); compound 70 g/ha): 88%
